In assay [1] the target is T1, GRK2 (Homo sapiens, UniProt P25098).
T1 sequence (P25098 1-689): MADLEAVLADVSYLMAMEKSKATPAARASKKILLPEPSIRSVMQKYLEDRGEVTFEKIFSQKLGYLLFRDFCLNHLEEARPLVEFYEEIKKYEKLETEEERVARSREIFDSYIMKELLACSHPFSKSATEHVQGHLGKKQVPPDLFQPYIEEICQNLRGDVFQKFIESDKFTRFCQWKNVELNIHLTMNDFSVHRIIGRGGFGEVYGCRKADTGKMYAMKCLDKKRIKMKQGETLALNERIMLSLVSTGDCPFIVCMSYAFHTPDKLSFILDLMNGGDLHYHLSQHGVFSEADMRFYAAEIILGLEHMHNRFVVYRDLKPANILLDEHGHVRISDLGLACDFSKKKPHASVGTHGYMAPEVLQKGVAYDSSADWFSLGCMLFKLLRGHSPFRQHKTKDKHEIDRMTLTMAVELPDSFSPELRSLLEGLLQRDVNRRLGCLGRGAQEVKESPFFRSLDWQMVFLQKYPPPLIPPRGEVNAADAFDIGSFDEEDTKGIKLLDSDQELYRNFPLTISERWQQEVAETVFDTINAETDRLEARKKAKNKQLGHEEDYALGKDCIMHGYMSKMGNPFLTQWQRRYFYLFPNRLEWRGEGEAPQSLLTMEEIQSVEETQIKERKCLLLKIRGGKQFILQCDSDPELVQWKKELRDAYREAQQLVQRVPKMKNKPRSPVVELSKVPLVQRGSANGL
Kind of assay: Second ADPGlo GRK2 Inhibition Assay (Example 3). Type of assay: biochemical. To be noted: ADP-Glo, 20 μM ATP; read-out: Second ADPGlo Enzymatic GRK2 Assay: IC50 (nM) (Example 3). On the procedure: Assay: GRK2 (2 nM) was incubated with ATP (20 μM) and GRKtide (1.2 mg/mL) in 11 μL of assay buffer (see above) for 180 min at room temperature. Compounds were dissolved in 100% DMSO, serially diluted 3.16-fold from 100 μM with 10 concentration points and transferred as 100× into assay plate (final compounds concentration in the reaction plate from 1 μM).
Materials: GRK2 was purchased from SignalChem (Cat #A14-10G, Lot #X645-3). Substrate GRKtide was from SignalChem (Cat #G46-58, Lot #R339-6). ADP-Glo Kinase Assay from Promega (Cat #V9102). Assay buffer consisted of 20 mM HEPES (pH7.5), 20 mM MgCl2, 0.01% Tween-20, 0.05 mM DDT. 384-well white plates were from Corning (Cat #4513).
HTS protocol: Add 5.5 μL of 2× substrate-enzyme mix into all columns except of 1-2 and 24 of reaction plate. Spin 15 seconds at 200 g. Transfer 1 ul of compounds from the plate with serial dilutions (384 well plate with 22 uL of compound in columns 3-22/DMSO solution 1-2,23-24) to Dilution plate (384 well plate with 49 uL of buffer with 2×40 μM ATP). After mixing transfer 5.5 ul from Dilution plate to Reaction plate (to 5.5 μL of 2× substrate-enzyme mix). Spin 15 seconds at 200 g and incubate for 180 min at room temperature with sealing. Add 3 μL ADP-Glo reagent to all the wells. Spin 15 seconds at 200 g and incubate for 40 min at room temperature. Add 6 μL Detection solution to all the wells. Incubate for 30 min at room temperature. Read plate using ClarioStar Plus (BMG).
Data Analysis: Data were analyzed in GraphPad Prism 5.0.2. Each HTS plate contains compounds in columns 3-22, controls (enzyme, no compound) in column 23, and blanks (no enzyme) in columns 2. HTS percent inhibition was calculated for each compound from the signal in luminescence units and the mean of the plate controls and the mean of the plate blanks using the following equation: % Inhibition=100*(1-(signal-blank mean)/(control mean-blank mean)).
A general note: In ADP-Glo the light output rises with the ADP produced.

For assay [2], the target named is T1, GRK2. Kind of assay: GRK2 Inhibition Assay (TR-FRET, Example 1). Type of assay: biochemical. To be noted: Table 4; Example 1 assay; read-out: Enzymatic GRK2 IC50: Av IC50 GRK2. The method in brief: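 TR-FRET phosphorylation readout: Eu anti-TopoIIα antibody with EDTA added after a 90 min RT kinase reaction of 1 nM GRK2, 7 μM ATP and 50 nM ULight-TopoIIα. Compounds were pre-incubated with enzyme 30 min at room temperature beforehand.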

Assay [3] deals with PAXF1657 EV. Kind of assay: 7-day cellular proliferation assay (CellTiter-Glo), PAXF1657 EV. Type of assay: cell-based. To be noted: proliferation, read-out: GeoMean IC50 (UM) PAXF1657 EV. A digest of the protocol:
(§1)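 Viability by CellTiter-Glo after 7 days at 37° C., with compound-containing media replaced on day 3. Cells (500/well, RPMI1640 + 10% FBS) were PAXF1657 pairs: GRK2 overexpression vs empty vector, or CRISPR GRK2 knockout vs non-targeting clones; doses 30 μM-0.0002 μM final, 10 points, 0.3% DMSO.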

The test system of assay [4] is PAXF1657 KO Clone #4. Kind of assay: 7-day cellular proliferation assay (CellTiter-Glo), PAXF1657 KO Clone #4. Conditions: proliferation, read-out: GeoMean IC50 (uM) PAXF1657 KO Clone #4. Type of assay: cell-based. The method in brief: as §1
Assay [5] addresses T1, GRK2. Kind of assay: GRK2 Degradation Assay and Western Blot in PAXF1657 cells. Set-up: endogenous in cells; host or cells: PAXF1657. Type of assay: cell-based. Conditions: read-out: Degradation Assay - 3 point: Degradation (%); for inhibition at 0.3 µM: Conc 0.3 uM; for inhibition at 1 µM: Conc 1 uM; for inhibition at 3 µM: Conc 3 uM. The method in brief:
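GRK2 degradation judged by immunoblot: NP40 lysates separated by SDS-PAGE and probed for GRK2 and β-actin, with HRP/ECL detection. Lysates came from PAXF1657 cells exposed to 0–10 μM compound for 6–24 h after reaching 70% confluency.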

SMILES strings stand for the structures.

Regarding `Cn1c(CNc2cccc(C(=O)NCc3cccc(OCCCCCCOCCOCCCCCC(=O)Nc4cccc5c4CN(C4CCC(=O)NC4=O)C5=O)c3)c2)nnc1-c1ccncn1` (stereo not drawn) [Compound D52], the IC50 in assay [1] was less than 100 nM.
With `COc1cc(OCCNC(=O)CCOCCOCCOCCNC(=O)Nc2cccc3c2CN(C2CCC(=O)NC2=O)C3=O)ccc1CNC(=O)c1cccc(NCc2nnc(-c3ccncn3)n2C)c1` (stereo not drawn) [Compound D68], in assay [1], the IC50 is more than 1000 nM.
`Cn1c(CNc2cccc(C(=O)NCc3cccc(OCCCCCCC(=O)Nc4cccc5c4CN(C4CCC(=O)NC4=O)C5=O)c3)c2)nnc1-c1ccncn1` (stereo not drawn) [Compound D69]: the IC50 in assay [1] was less than 100 nM.
For the molecule `C[C@@H](NC(=O)c1cccc(NCc2nnc(-c3ccncn3)n2C)c1)c1cccc(OCCCCCOCCCOCC(=O)N2CCN(c3ccc4c(c3)CN(C3CCC(=O)NC3=O)C4=O)CC2)c1` (stereo partly drawn) [Compound D181, N-((1R)-1-(3-((5-(3-(2-(4-(2-(2,6-dioxopiperidin-3-yl)-1-oxoisoindolin-5-yl)piperazin-1-yl)-2-oxoethoxy)propoxy)pentyl)oxy)phenyl)ethyl)-3-(((4-methyl-5-(pyrimidin-4-yl)-4H-1,2,4-triazol-3-yl)methyl)amino)benzamide], the IC50 in assay [2] was 11.8 nM. Besides, the IC50 in assay [3] stood at 580 nM. The half-inhibitory concentration (IC50) in assay [4] is more than 30 µM. Further, in assay [5], the inhibition at 0.3 µM was 55%, the inhibition at 1 µM worked out at 78% and the inhibition at 3 µM is 86%.
With `C[C@@H](NC(=O)c1cccc(NCc2nnc(-c3ccncn3)n2C)c1)c1cccc(OCCCCCOCCCOCC(=O)Nc2cccc3c2CN(C2CCC(=O)NC2=O)C3=O)c1` (stereo partly drawn) [Compound D183, N-((1R)-1-(3-((5-(3-(2-((2-(2,6-dioxopiperidin-3-yl)-1-oxoisoindolin-4-yl)amino)-2-oxoethoxy)propoxy)pentyl)oxy)phenyl)ethyl)-3-(((4-methyl-5-(pyrimidin-4-yl)-4H-1,2,4-triazol-3-yl)methyl)amino)benzamide], the IC50 in assay [2] amounted to 16.7 nM. The IC50 in assay [3] was found to be 110 nM. In addition, in assay [4], the IC50 is more than 30 µM. In assay [5], the inhibition at 0.3 µM is 82%, the inhibition at 1 µM came out at 86.5% and the inhibition at 3 µM was found to be 94.6%.
On to `C[C@H](NC(=O)c1cccc(NCc2nnc(-c3ccncn3)n2C)c1)c1cccc(OCCCCCOCCCOCC(=O)Nc2cccc3c2CN(C2CCC(=O)NC2=O)C3=O)c1` (stereo partly drawn) [Compound D185, N-((1S)-1-(3-((5-(3-(2-((2-(2,6-dioxopiperidin-3-yl)-1-oxoisoindolin-4-yl)amino)-2-oxoethoxy)propoxy)pentyl)oxy)phenyl)ethyl)-3-(((4-methyl-5-(pyrimidin-4-yl)-4H-1,2,4-triazol-3-yl)methyl)amino)benzamide], for which the IC50 in assay [2] is 211 nM; in assay [3], more than 30000 nM; in assay [4], more than 30 µM. Moreover, in assay [5], the inhibition at 0.3 µM amounted to 1.79%. The inhibition at 1 µM in assay [5] stood at 17.5%. Further, the inhibition at 3 µM in assay [5] came out at 19.2%.
Consider `C[C@@H](NC(=O)c1cccc(NCc2nnc(-c3ccncn3)n2C)c1)c1cccc(OCCCCCCOCCOCCOCCCCCC(=O)Nc2cccc3c2CN(C2CCC(=O)N(C)C2=O)C3=O)c1` (stereo partly drawn) [Compound D190], for which the IC50 in assay [2] turned out to be 12.7 nM. The IC50 in assay [3] was 1740 nM. The half-maximal inhibitory concentration (IC50) in assay [4] is 26.8 µM. In assay [5], the inhibition at 0.3 µM was -22%, the inhibition at 1 µM turned out to be 51% and the inhibition at 3 µM came out at 53%.
In the case of `C[C@@H](NC(=O)c1cccc(NCc2nnc(-c3ccncn3)n2C)c1)c1cccc(OCCCCCCOCCOCCOCCCCCC(=O)N2CCN(c3ccc4c(c3)CN(C3CCC(=O)NC3=O)C4=O)CC2)c1` (stereo partly drawn) [Compound D191, N-((1R)-1-(3-((6-(2-(2-((6-(4-(2-(2,6-dioxopiperidin-3-yl)-1-oxoisoindolin-5-yl)piperazin-1-yl)-6-oxohexyl)oxy)ethoxy)ethoxy)hexyl)oxy)phenyl)ethyl)-3-(((4-methyl-5-(pyrimidin-4-yl)-4H-1,2,4-triazol-3-yl)methyl)amino)benzamide], in assay [2], the IC50 was found to be 24.9 nM. In assay [3], the IC50 stood at 320 nM. For the same molecule, the IC50 in assay [4] is more than 30 µM. In assay [5], the inhibition at 0.3 µM came to 36.7%, the inhibition at 1 µM worked out at 78.1% and the inhibition at 3 µM stood at 86%.
With `C[C@@H](NC(=O)c1cccc(NCc2nnc(-c3ccncn3)n2C)c1)c1cccc(OCCCCCOCCCOCCNc2cccc3c2CN(C2CCC(=O)NC2=O)C3=O)c1` (stereo partly drawn) [Compound D196, N-((1R)-1-(3-(5-(3-(2-(2-(2,6-dioxopiperidin-3-yl)-1-oxoisoindolin-4-ylamino)ethoxy)propoxy)pentyloxy)phenyl)ethyl)-3-((4-methyl-5-(pyrimidin-4-yl)-4H-1,2,4-triazol-3-yl)methylamino)benzamide], the IC50 in assay [2] is 23.8 nM. Besides, the IC50 in assay [3] is 360 nM. Also, the IC50 in assay [4] is more than 30 µM. Further, in assay [5], the inhibition at 0.3 µM turned out to be 66.2%, the inhibition at 1 µM worked out at 71.1% and the inhibition at 3 µM came out at 38.9%.
As for `Cn1c(CNc2cccc(C(=O)NCc3cc(OCCCCCOCCCOCC(=O)Nc4cccc5c4CN(C4CCC(=O)NC4=O)C5=O)ccc3F)c2)nnc1-c1ccncn1` (stereo not drawn) [Compound D197, N-(5-(5-(3-(2-(2-(2,6-dioxopiperidin-3-yl)-1-oxoisoindolin-4-ylamino)-2-oxoethoxy)propoxy)pentyloxy)-2-fluorobenzyl)-3-((4-methyl-5-(pyrimidin-4-yl)-4H-1,2,4-triazol-3-yl)methylamino)benzamide], the IC50 in assay [2] was 82.3 nM. In assay [3], the IC50 came to 5890 nM. Moreover, the IC50 in assay [4] is more than 30 µM. In addition, in assay [5], the inhibition at 0.3 µM is -6.8%, the inhibition at 1 µM was 27.7% and the inhibition at 3 µM was 54.5%.
With `C[C@@H](NC(=O)c1cccc(NCc2nnc(-c3ccncn3)n2C)c1)c1cccc(OCCCCCOCCCOCCOc2cccc3c2CN(C2CCC(=O)NC2=O)C3=O)c1` (stereo partly drawn) [Compound D198, N-((1R)-1-(3-((5-(3-(2-((2-(2,6-dioxopiperidin-3-yl)-1-oxoisoindolin-4-yl)oxy)ethoxy)propoxy)pentyl)oxy)phenyl)ethyl)-3-(((4-methyl-5-(pyrimidin-4-yl)-4H-1,2,4-triazol-3-yl)methyl)amino)benzamide], the IC50 was 22.1 nM in assay [2], 10 nM in assay [3] and more than 30 µM in assay [4]. Besides, the inhibition at 0.3 µM in assay [5] was 83.9%. Further, in assay [5], the inhibition at 1 µM was 81.6%. Further, the inhibition at 3 µM in assay [5] is 50.3%.

The IC50 is the concentration needed to halve the response being measured.

The values are drawn from patent US20240174637A1, “DEGRADERS OF GRK2 AND USES THEREOF” (Sonata Therapeutics, Inc., priority 2021, published 2024).
